Results published in US5861269A, “Methods for removing interferences due to endogenous dehydrogenases in enzyme assays” (Dade Behring Marburg GmbH, priority 1996, dated 1999).

Assays:
[1] = system: endogenous dehydrogenases; test: Emit Ethyl Alcohol Assay with inhibitor, serum samples falsely elevated by endogenous dehydrogenases; assay type: biochemical; conditions: inhibitor in Reagent 1
Protocol: (§1) (Part No. 9K219). The assays were performed on the Cobas Mira-S analyzer (Roche Diagnostics Inc., Nutley, N.J.) according to the manufacturer's instructions using the protocol provided by Syva Company. Briefly, the Emit® Ethyl Alcohol Assay consists of two reagents, Reagent 1 and Reagent 2. Reagent 1 contains Tris buffer, stabilizers and preservatives. Reagent 2 contains alcohol dehydrogenase, nicotinamide adenine dinucleotide (NAD^+), bulking agents, stabilizers, surfactants and preservatives. Reagent 2 is shipped in dry form and is reconstituted according to the manufacturer's instructions. To perform the assay, Reagent 1 and Reagent 2 %ere added to the sample. Following mixing and incubation, the change in absorbance at 340 nm was monitored. The reaction is linear, and calibration was achieved by single point calibration using a 100 mg/dL (0.10%) calibrator, supplied by Syva Company. The calculation of results was not required. The instrument prints the quantitative result.
Results reported under the column GC refer to confirmatory results obtained using gas chromatography.
Agaric acid was dissolved in Emit® Ethyl Alcohol Reagent 1 by stirring with heat to a concentration of 25 mM. […] The solution was cooled to room temperature. The pH of the solution was measured and adjusted to the pH of the Emit® Ethyl Alcohol Reagent 1 (pH 9.0) with a small volume of 10N NaOH. […] These discrepant samples were analyzed using the Emit® Ethyl Alcohol Assay side by side with the assay containing agaric acid.

[2] = system: endogenous dehydrogenases; test: Emit Ethyl Alcohol Assay with inhibitor, whole blood samples; assay type: biochemical; conditions: whole blood ethanol samples
Protocol: as §1, with “The ability of inhibitors to prevent false positive results with samples containing endogenous dehydrogenases was determined by employing the Emit® Ethyl Alcohol Assay available from Syva Company, San Jose, Calif. (Part” for “(Part”
In the following examples, results reported under the column Current Emit® refer to results observed using the Emit® Ethyl Alcohol assay in the absence of inhibitor. […]

malate dehydrogenase = conditions: Bacchi et al., J. Bacteriol. 98(1), 23-28 (1969); cited from earlier work
[3] = system: α-glycerophosphate dehydrogenase; conditions: Bacchi et al., J. Bacteriol. 98(1), 23-28 (1969); cited from earlier work

SMILES | Effect on elevated (false-positive) ethanol results of the Emit Ethyl Alcohol Assay [1] | Accuracy of the Emit Ethyl Alcohol Assay versus current Emit product [2] | Inhibition of malate dehydrogenase (malate dehydrogenase) | Inhibition of α-glycerophosphate dehydrogenase [3]
CCCCCCCCCCCCCCCCC(C(=O)O)C(O)(CC(=O)O)C(=O)O (centres unmarked) [Agaric Acid, Agaric acid] | eliminated | improved accuracy | highly inhibitory | highly inhibitory
CCCCCCCCCCCC(=O)O [Lauric Acid, Lauric acid] | eliminated | – | – | –
CCCC/C=C\CCCCCCCC(=O)O [Myristoleic Acid, myristoleic acid] | eliminated | – | – | –
CCCCCCCCCCCCOS(=O)(=O)[O-].[Na+] [SDS, sodium dodecyl sulfate] | eliminated | – | – | –
CCCCCCCCCCOS(=O)(=O)[O-].[Na+] [Sodium Decyl Sulfate, sodium decyl sulfate] | eliminated | – | – | –
